# Reference: patent US8962631B2 (Vertex Pharmaceuticals Incorporated, priority 2010, dated 2015)
# Biological target: T1, full-length ATR (Homo sapiens, UniProt Q13535)
# T1 construct: Assays were carried out at 25° C. in the presence of 5 nM full-length ATR
# Test: ATR Inhibition Assay (radioactive-phosphate incorporation)
# Type: biochemical
# Details: for Ki: Ki(app), 10 μM ATP, 800 μM target peptide, 5 nM full-length ATR, 25° C.; for inhibition at 15 µM: at 15 uM compound
# Protocol: Compounds were screened for their ability to inhibit ATR kinase using a radioactive-phosphate incorporation assay. Assays were carried out in a mixture of 50 mM Tris/HCl (pH 7.5), 10 mM MgCl2 and 1 mM DTT. Final substrate concentrations were 10 μM [γ-33P]ATP (3 mCi 33P ATP/mmol ATP, Perkin Elmer) and 800 μM target peptide ([…] (SEQ. ID NO: 1)).
# Assays were carried out at 25° C. in the presence of 5 nM full-length ATR. An assay stock buffer solution was prepared containing all of the reagents listed above, with the exception of ATP and the test compound of interest. 13.5 μL of the stock solution was placed in a 96 well plate followed by addition of 2 μL of DMSO stock containing serial dilutions of the test compound (typically starting from a final concentration of 15 μM with 3-fold serial dilutions) in duplicate (final DMSO concentration 7%). The plate was pre-incubated for 10 minutes at 25° C. and the reaction initiated by addition of 15 μL [γ-33P]ATP (final concentration 10 μM).
# The reaction was stopped after 24 hours by the addition of 30 μL 0.1M phosphoric acid containing 2 mM ATP. A multiscreen phosphocellulose filter 96-well plate (Millipore, Cat no. MAPHN0B50) was pretreated with 100 μL 0.2M phosphoric acid prior to the addition of 45 μL of the stopped assay mixture. The plate was washed with […] 0.2M phosphoric acid. After drying, 100 μL Optiphase ‘SuperMix’ liquid scintillation cocktail (Perkin Elmer) was added to the well prior to scintillation counting (1450 Microbeta Liquid Scintillation Counter, Wallac).
# After removing mean background values for all of the data points, Ki(app) data were calculated from non-linear regression analysis of the initial rate data using the Prism software package (GraphPad Prism version 3.0cx for Macintosh, GraphPad Software, San Diego Calif., USA).
# [1] = read-out: percent inhibition against ATR
# T1 sequence (Q13535 whole entry): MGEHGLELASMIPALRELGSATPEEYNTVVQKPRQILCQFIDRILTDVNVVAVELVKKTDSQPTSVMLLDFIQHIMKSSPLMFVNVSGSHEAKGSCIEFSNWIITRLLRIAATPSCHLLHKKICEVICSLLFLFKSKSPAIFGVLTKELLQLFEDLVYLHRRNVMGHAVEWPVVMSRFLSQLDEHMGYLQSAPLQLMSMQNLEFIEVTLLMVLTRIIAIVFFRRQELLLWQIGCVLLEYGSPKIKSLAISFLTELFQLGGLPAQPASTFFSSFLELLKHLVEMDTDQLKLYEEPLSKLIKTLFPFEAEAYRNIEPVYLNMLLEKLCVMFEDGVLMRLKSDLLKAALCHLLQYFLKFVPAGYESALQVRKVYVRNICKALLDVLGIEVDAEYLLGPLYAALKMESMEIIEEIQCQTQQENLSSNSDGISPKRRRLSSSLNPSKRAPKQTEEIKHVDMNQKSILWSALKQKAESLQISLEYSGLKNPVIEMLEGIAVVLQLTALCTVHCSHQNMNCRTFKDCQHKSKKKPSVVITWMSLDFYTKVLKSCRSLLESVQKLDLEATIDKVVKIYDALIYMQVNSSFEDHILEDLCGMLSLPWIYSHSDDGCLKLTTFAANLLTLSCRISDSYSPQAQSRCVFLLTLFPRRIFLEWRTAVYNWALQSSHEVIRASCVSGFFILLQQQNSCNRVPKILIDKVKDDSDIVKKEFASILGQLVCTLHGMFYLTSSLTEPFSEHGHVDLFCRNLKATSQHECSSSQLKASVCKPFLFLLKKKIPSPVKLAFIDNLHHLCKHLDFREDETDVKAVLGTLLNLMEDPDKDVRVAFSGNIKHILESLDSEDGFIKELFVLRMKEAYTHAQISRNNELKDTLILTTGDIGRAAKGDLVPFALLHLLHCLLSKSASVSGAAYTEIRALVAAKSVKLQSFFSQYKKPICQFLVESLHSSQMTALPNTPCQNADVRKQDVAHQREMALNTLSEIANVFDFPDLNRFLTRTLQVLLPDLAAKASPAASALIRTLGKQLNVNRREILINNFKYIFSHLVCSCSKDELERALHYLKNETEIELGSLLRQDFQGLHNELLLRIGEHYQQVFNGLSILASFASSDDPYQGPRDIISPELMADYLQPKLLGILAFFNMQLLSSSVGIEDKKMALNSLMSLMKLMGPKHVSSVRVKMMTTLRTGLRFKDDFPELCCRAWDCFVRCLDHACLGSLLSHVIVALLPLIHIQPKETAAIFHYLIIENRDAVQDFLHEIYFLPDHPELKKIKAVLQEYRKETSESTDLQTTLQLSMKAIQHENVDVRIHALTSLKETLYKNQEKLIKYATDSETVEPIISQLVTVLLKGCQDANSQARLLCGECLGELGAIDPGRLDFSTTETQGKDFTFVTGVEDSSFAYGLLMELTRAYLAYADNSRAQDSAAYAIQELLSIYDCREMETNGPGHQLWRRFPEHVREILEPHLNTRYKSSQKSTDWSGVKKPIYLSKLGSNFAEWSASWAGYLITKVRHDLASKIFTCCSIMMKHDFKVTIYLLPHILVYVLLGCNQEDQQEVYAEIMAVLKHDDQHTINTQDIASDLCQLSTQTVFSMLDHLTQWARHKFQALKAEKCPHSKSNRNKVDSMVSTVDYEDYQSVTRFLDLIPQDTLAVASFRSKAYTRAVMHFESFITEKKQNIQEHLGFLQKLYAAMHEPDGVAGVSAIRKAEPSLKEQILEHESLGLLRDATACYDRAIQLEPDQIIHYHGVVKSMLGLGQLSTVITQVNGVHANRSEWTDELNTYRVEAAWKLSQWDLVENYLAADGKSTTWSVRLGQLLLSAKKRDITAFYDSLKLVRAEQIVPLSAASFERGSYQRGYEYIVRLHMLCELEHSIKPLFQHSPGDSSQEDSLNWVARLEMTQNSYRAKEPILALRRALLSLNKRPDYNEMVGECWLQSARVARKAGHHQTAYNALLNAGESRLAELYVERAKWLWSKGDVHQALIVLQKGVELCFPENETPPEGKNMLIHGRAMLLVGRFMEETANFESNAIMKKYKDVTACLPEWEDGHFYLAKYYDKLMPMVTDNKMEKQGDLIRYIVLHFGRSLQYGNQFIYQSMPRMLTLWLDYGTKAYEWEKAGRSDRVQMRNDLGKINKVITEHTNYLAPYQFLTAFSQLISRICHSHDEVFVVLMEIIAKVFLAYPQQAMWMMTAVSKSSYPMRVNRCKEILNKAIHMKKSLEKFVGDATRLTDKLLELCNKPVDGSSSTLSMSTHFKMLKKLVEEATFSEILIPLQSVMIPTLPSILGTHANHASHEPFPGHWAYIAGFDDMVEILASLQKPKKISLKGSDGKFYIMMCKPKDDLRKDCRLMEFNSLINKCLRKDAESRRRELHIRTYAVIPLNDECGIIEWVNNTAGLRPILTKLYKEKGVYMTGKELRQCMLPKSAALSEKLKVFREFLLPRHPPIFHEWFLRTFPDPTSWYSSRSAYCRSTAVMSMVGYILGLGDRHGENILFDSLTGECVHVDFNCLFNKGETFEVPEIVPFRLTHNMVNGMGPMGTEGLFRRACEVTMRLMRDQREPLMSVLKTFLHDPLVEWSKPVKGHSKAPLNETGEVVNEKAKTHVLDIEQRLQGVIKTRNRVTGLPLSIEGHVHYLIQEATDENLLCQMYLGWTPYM
Ki,Compound,other results
500 to 1000 nM,"Cc1ccc2nc(-c3nc(C(=O)N(C)Cc4ccccc4)cnc3N)[nH]c2c1 [II-58, 5-Amino-N-benzyl-N-methyl-6-(6-methyl-1H-benzimidazol-2-yl)pyrazine-2-carboxamide]",–
1000 to 8000 nM,"Nc1ncc(C#CCCO)nc1-c1nnc(-c2ccccc2)o1 [II-89, 4-[5-amino-6-(5-phenyl-1,3,4-oxadiazol-2-yl)pyrazin-2-yl]but-3-yn-1-ol]",–
1000 to 8000 nM,"Nc1ncc(Sc2cccc(Cl)c2)nc1-c1nc2ccccc2[nH]1 [II-39, 3-(1H-Benzimidazol-2-yl)-5-(3-chlorophenyl)sulfanyl-pyrazin-2-amine]",–
–,"Nc1ncc(Sc2cccc(F)c2)nc1-c1nc2ccccc2[nH]1 [II-40, 3-(1H-Benzimidazol-2-yl)-5-(3-fluorophenyl)sulfanyl-pyrazin-2-amine]","inhibition at 30 µM (at 30 uM compound, read-out: percent inhibition against ATR): 40 to 50%"
1000 to 8000 nM,"COCCNC(=O)c1cnc(N)c(-c2nc3ccc(C)cc3[nH]2)n1 [II-71, 5-Amino-N-(2-methoxyethyl)-6-(6-methyl-1H-benzimidazol-2-yl)pyrazine-2-carboxamide]",–
≤ 500 nM,"COc1ccccc1NC(=O)c1nc(Nc2ccccc2)cnc1N [II-3, 3-Amino-6-anilino-N-(2-methoxyphenyl)pyrazine-2-carboxamide]",–
500 to 1000 nM,"COc1cccc(Oc2cnc(N)c(-c3nc4ccccc4[nH]3)n2)c1 [II-15, 3-(1H-Benzimidazol-2-yl)-5-(3-methoxyphenoxy)pyrazin-2-amine]",–
1000 to 8000 nM,"CC(C)Oc1cnc(N)c(-c2nc3ccccc3[nH]2)n1 [II-13, 3-(1H-Benzimidazol-2-yl)-5-isopropoxy-pyrazin-2-amine]",–
1000 to 8000 nM,"C=CCNC(=O)c1cnc(N)c(-c2nc3ccc(C)cc3[nH]2)n1 [II-66, N-Allyl-5-amino-6-(6-methyl-1H-benzimidazol-2-yl)pyrazine-2-carboxamide]",–
500 to 1000 nM,"Cc1ccc2nc(-c3nc(C(=O)NCc4ccco4)cnc3N)[nH]c2c1 [II-68, 5-Amino-N-(2-furylmethyl)-6-(6-methyl-1H-benzimidazol-2-yl)pyrazine-2-carboxamide]",–
≤ 500 nM,"COc1ccccc1NC(=O)c1nc(Oc2ccccc2)cnc1N [II-16, 3-Amino-N-(2-methoxyphenyl)-6-phenoxy-pyrazine-2-carboxamide]",–
≤ 500 nM,"N#Cc1cccc(Oc2cnc(N)c(-c3nc4ccccc4[nH]3)n2)c1 [II-10, 3-[5-Amino-6-(1H-benzimidazol-2-yl)pyrazin-2-yl]oxybenzonitrile]",–
–,"Cc1ccc2nc(-c3nc(C(=O)Nc4ccccc4)cnc3N)[nH]c2c1 [II-41, 5-Amino-6-(6-methyl-1H-benzimidazol-2-yl)-N-phenyl-pyrazine-2-carboxamide]",inhibition at 15 µM [1]: 25 to 45%
≤ 500 nM,"Cc1ccc2nc(-c3nc(C(=O)NCc4ccccc4)cnc3N)[nH]c2c1 [II-43, 5-Amino-N-benzyl-6-(6-methyl-1H-benzimidazol-2-yl)pyrazine-2-carboxamide]",–
≤ 500 nM,"Nc1ncc(Nc2ccccc2)nc1C(=O)Nc1ccccc1 [II-1, 3-Amino-6-anilino-N-phenyl-pyrazine-2-carboxamide]",–
1000 to 8000 nM,"Cc1ccc2nc(-c3nc(C(=O)N(C)CC#N)cnc3N)[nH]c2c1 [II-76, 5-Amino-N-(cyanomethyl)-N-methyl-6-(6-methyl-1H-benzimidazol-2-yl)pyrazine-2-carboxamide]",–
≤ 500 nM,"CC(=O)NCC#Cc1cnc(N)c(-c2nc3ccc(C)cc3[nH]2)n1 [II-88, N-[3-[5-amino-6-(6-methyl-1H-benzimidazol-2-yl)pyrazin-2-yl]prop-2-ynyl]acetamide]",–

Ki,Compound,other results
≤ 500 nM,"Cc1ccc2nc(-c3nc(Oc4ccc(C(=O)O)cc4)cnc3N)[nH]c2c1 [II-26, 4-[5-Amino-6-(6-methyl-1H-benzimidazol-2-yl)pyrazin-2-yl]oxybenzoic acid]",–
1000 to 8000 nM,"Cc1ccc2nc(-c3nc(C(=O)NCC(=O)C(C)(C)C)cnc3N)[nH]c2c1 [II-62, 5-Amino-N-(3,3-dimethyl-2-oxo-butyl)-6-(6-methyl-1H-benzimidazol-2-yl)pyrazine-2-carboxamide]",–
≤ 500 nM,"Cc1ccc2nc(-c3nc(C#CCN4CCS(=O)(=O)CC4)cnc3N)[nH]c2c1 [II-85, 5-[3-(1,1-Dioxo-1,4-thiazinan-4-yl)prop-1-ynyl]-3-(6-methyl-1H-benzimidazol-2-yl)pyrazin-2-amine]",–
1000 to 8000 nM,"Nc1ncc(O[C@@H]2CC[C@H](O)C2)nc1-c1nc2ccccc2[nH]1 (relative stereo) [II-35, cis-3-((5-Amino-6-(1H-benzo[d]imidazol-2-yl)pyrazin-2-yl)oxy)cyclopentanol]",–
–,"Cc1ccc2nc(-c3nc(Oc4cccc(C#N)c4)cnc3N)[nH]c2c1 [II-31, 3-[5-Amino-6-(6-methyl-1H-benzimidazol-2-yl)pyrazin-2-yl]oxybenzonitrile]",inhibition at 15 µM [1]: 15 to 24%
≤ 500 nM,"CC(=O)Nc1cnc(N)c(-c2nc3ccccc3[nH]2)n1 [II-91, N-[5-Amino-6-(1H-benzimidazol-2-yl)pyrazin-2-yl]acetamide]",–
500 to 1000 nM,"Cc1ccc2nc(-c3nc(C(=O)NCCc4ccccc4)cnc3N)[nH]c2c1 [II-69, 5-Amino-6-(6-methyl-1H-benzimidazol-2-yl)-N-phenethyl-pyrazine-2-carboxamide]",–
≤ 500 nM,"Cc1ccc2nc(-c3nc(C(=O)NCC#N)cnc3N)[nH]c2c1 [II-48, 5-Amino-N-(cyanomethyl)-6-(6-methyl-1H-benzimidazol-2-yl)pyrazine-2-carboxamide]",–
≤ 500 nM,"Cc1ccc2nc(-c3nc(C(=O)NCC4CCCO4)cnc3N)[nH]c2c1 (stereo not shown) [II-52, 5-Amino-6-(6-methyl-1H-benzimidazol-2-yl)-N-(tetrahydrofuran-2-ylmethyl)pyrazine-2-carboxamide]",–
1000 to 8000 nM,"Cc1ccc2nc(-c3nc(C(=O)NCC(=O)N(C)C)cnc3N)[nH]c2c1 [II-61, 5-Amino-N-[2-(dimethylamino)-2-oxo-ethyl]-6-(6-methyl-1H-benzimidazol-2-yl)pyrazine-2-carboxamide]",–
500 to 1000 nM,"Nc1ncc(Oc2ccccc2)nc1-c1nc2ccccc2[nH]1 [II-7, 3-(1H-Benzimidazol-2-yl)-5-phenoxy-pyrazin-2-amine]",–
500 to 1000 nM,"C/C=C/c1cnc(N)c(-c2nc3ccc(C)cc3[nH]2)n1 [II-78, 3-(6-Methyl-1H-benzimidazol-2-yl)-5-[(E)-prop-1-enyl]pyrazin-2-amine]",–
500 to 1000 nM,"Cc1ccc2nc(-c3nc(C(=O)NCCC(F)(F)F)cnc3N)[nH]c2c1 [II-73, 5-Amino-6-(6-methyl-1H-benzimidazol-2-yl)-N-(3,3,3-trifluoropropyl)pyrazine-2-carboxamide]",–
≤ 500 nM,"COC(=O)CNC(=O)c1cnc(N)c(-c2nc3ccc(C)cc3[nH]2)n1 [II-55, Methyl 2-[[5-amino-6-(6-methyl-1H-benzimidazol-2-yl)pyrazine-2-carbonyl]amino]acetate]",–
–,"Nc1ncc(Sc2ccccc2)nc1-c1nc2ccccc2[nH]1 [II-38, 3-(1H-Benzimidazol-2-yl)-5-phenylsulfanyl-pyrazin-2-amine]",inhibition at 15 µM [1]: 15 to 24%
500 to 1000 nM,"Nc1ncc(Oc2cccc(Cl)c2)nc1-c1nc2ccccc2[nH]1 [II-8, 3-(1H-Benzimidazol-2-yl)-5-(3-chlorophenoxy)pyrazin-2-amine]",–
500 to 1000 nM,"Cc1ccc2nc(-c3nc(Oc4ccccc4C#N)cnc3N)[nH]c2c1 [II-20, 2-[5-Amino-6-(6-methyl-1H-benzimidazol-2-yl)pyrazin-2-yl]oxybenzonitrile]",–
